Measurements reported in patent US12616751B2, “Photosensitizing antibody-fluorophore conjugates” (The USA, as represented by the Secretary, Department of …, priority 2010, dated 2026).
Entries after “also recorded” stand apart in the source; their conditions may differ.

Tests used:
A431 cells [1] = type: cell-based
Description: EGFR-expressing A431 cells were used as the target HER1+ cells. […] Cells were grown in RPMI 1640 supplemented with 10% fetal bovine serum and 1% penicillin/streptomycin in tissue culture flasks in a humidified incubator at 37° C. in an atmosphere of 95% air and 5% carbon dioxide. A431 or Balb/3T3/DsRed cells were seeded on cover glass-bottomed dishes and incubated for 24 hours. Pan-IR700 was added to the culture medium at 10 μg/mL and incubated either for 1 hour on ice or 6 hours at 37° C., then cells were washed with PBS. Culture medium was replaced with phenol red-free medium after washing with phosphate buffered saline (PBS).
PIT was performed as described in Examples 2 and 3.

3T3/HER2 tumor = assay: In vivo fluorescence imaging of Pan-IR700 in HER1 negative tumor; parameters: species or system mice; conditions: mouse, listed as Pan-1R700
Description: To confirm antigen specific localization of Pan-IR700, 1×10^6 of 3T3/HER2 cells (HER1 negative) were injected subcutaneously in the right dorsum at the same time of A431 cells injection. […] Regions of interest (ROI) for both tumor and background were placed for equivalent sized areas containing the same number of pixels. Tumor to background ratio (TBR) was calculated using the following formula: TBR=((mean tumor intensity)−(mean background intensity))/((mean non-tumor intensity)−(mean background intensity)).

MDA-MB-468 cells = assay: In vitro PIT, microscopy before and after; type: cell-based
Description: For photoimmunotherapy (PIT), cells were seeded on 35 mm cover glass-bottomed dishes and incubated 24 hours. […] Culture medium was replaced with phenol red-free medium after washing with phosphate buffered saline (PBS). Cells were irradiated with light at 670 nm to 690 nm using a red light emitting diode (LED; FluorVivo; INDEC Systems Inc., Capitola, Calif.) with a power density of 2.6 mW cm^−2 as measured with optical power meter (PM 100, Thorlabs, Newton, N.J.). Cell viability was assessed 1 hour after treatment with LIVE/DEAD® Fixable Green Dead Cell Stain Kit (Invitrogen). After the treatment, cells were trypsinized and washed with PBS. Green fluorescent reactive dye was added in the cell suspension and incubated at room temperature for 30 minutes. Cells were then analyzed on flow cytometer (FACS Calibur, BD BioSciences, San Jose, Calif.).
This example describes additional results showing that the disclosed antibody-IR700 compounds selectively kill cells that express the appropriate protein. The photoimmunotherapy (PIT) methods are described in Example 2.

A431 cells [2] = assay: Cell pellet FLT studies; type: cell-based
Description: Reagents. […] All other chemicals used were of reagent grade. […] Then the mixture was purified with a Sephadex G50 column (PD-10; GE Healthcare). The protein concentrations were determined with Coomassie Plus protein assay kit (Pierce Biotechnology) by measuring light absorption at 595 nm (8453 Value System; Agilent Technologies). […] The number of IR700 per antibody was approximately 4 for the 1:4.5 reaction conditions. The addition of 0.4% SDS to the sample dissociated the fluorophores from each other, effectively causing dequenching. Quenching efficiency (QE) for a particular conjugation is defined as the fluorescence intensity with SDS divided by fluorescence intensity without SDS. […] Pan-1R700 was kept at 4° C. in the refrigerator as a stock solution. Fluorescence lifetime measurements. FLT experiments were performed with the eXplore OptixTm-MX2 system (ART Advanced Research Technologies, Inc.) (Hutchinson et al., Biophys J 68:1574-82, 1995; Ma et al., Appl Opt 46:1650-7, 2007). […] Lifetime values and lifetime mapping were calculated to fit fluorescence temporal point-spread functions (TPSFs) as single-exponential models with the Fit TPSF tool. […] Power densities were measured with an optical power meter (PM 100, Thorlabs). […] The fluorescence intensities and lifetimes of each sample were determined using the Optix MX2 system at room temperature within a 1.7 ml centrifuge tube. To investigate the effect of PIT using Pan-1R700, the FLT of each sample at the concentration of 50 pg/mL was measured after irradiating the samples at a PIT dose of 0, 2, 4, 8, 15, 30 J/cm2. […] The fluorescence intensities and lifetimes of each sample were then obtained. […] After that, these pellets were gently washed with PBS×1 and fluorescence intensity and lifetime images were obtained. To detect the antigen specific localization of IR700 and to confirm the morphological changes of A431 cells before and after PIT, fluorescence microscopy was performed using Olympus BX61 microscope (Olympus America) equipped with the following filters: a 590-650 nm excitation filter, a 665-740 nm band pass emission filter. […]

## Pan-IR700: Panitumumab (anti-human EGFR IgG2 MAb) conjugated to IR700; about 3 to 4 IR700 per antibody
A431 cells [1]
  cytotoxicity without excitation light: no significant cytotoxicity
A431 cells [1]; 0.5 to 2 J cm^−2
  cell death after irradiation: rapid cell death in a dose-dependent manner
A431 cells [1]; FIG. 8
  cell killing by PIT (microscopy): specifically killed
A431 cells [1]; co-cultured with Balb/3T3/DsRed (HER1 negative) cells
  target-specific phototoxicity in co-culture: Target-specific phototoxicity was also confirmed
3T3/HER2 tumor
  fluorescence of HER1 negative tumor: the same as that of background; also recorded: did not show detectable fluorescence
MDA-MB-468 cells
  cell killing by PIT (microscopy): specifically killed
A431 cells [2]; 8 J/cm^2 versus before light exposure
  shortening of FLT: 9.1%
A431 cells [2]; 15 J/cm^2 versus before light exposure
  shortening of FLT: 10.1%
A431 cells [2]; 30 J/cm^2 versus before light exposure
  shortening of FLT: 13.1%
